The text below walks through data of patent US20160046610A1, “3-HETEROARYL SUBSTITUTED INDAZOLES” (BAYER PHARMA AKTIENGESELLSCHAFT, priority 2013, published 2016).

Like-named read-outs stand apart in the source and are kept apart here. Bounds are passed on as bounds.

The target in experiment [1] is T1, catalytic domain of human Bub1 (amino acids 704-1085) (Homo sapiens, UniProt O43683).
T1 construct: catalytic domain of human Bub1 (amino acids 704-1085); His6 (N); made in house; host or cells: Hi5 insect cells
T1 sequence (O43683 704-1085): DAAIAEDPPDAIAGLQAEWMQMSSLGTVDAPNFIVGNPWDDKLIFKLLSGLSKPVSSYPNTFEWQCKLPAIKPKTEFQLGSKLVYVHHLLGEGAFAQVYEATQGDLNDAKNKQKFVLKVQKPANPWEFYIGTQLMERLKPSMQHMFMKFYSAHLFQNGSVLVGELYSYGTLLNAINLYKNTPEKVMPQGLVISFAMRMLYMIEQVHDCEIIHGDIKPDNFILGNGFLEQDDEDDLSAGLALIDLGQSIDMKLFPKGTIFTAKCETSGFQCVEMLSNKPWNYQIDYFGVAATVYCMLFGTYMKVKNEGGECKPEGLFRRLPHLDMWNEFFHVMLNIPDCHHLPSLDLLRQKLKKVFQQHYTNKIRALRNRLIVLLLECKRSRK
Description: Bub1 kinase assay (TR-FRET). The experiment is classed as biochemical. How it is done: To this end, 100-fold concentrated compound solutions (in DMSO) were previously prepared by serial dilution (1:3.4) of 2 mM stocks in a clear low volume 384-well source microtiter plate (Greiner Bio-One, Frickenhausen, Germany), from which 50 nl of compounds were transferred into a black low volume test microtiter plate from the same supplier. […] The resulting mixture (5 μL final volume) was incubated at 22° C. during 60 min., and the reaction was stopped by the addition of 5 μL of an aqueous EDTA-solution (50 mM EDTA, in 100 mM HEPES pH 7.5 and 0.2% (w/v) bovine serum albumin) which also contained the TR-FRET detection reagents (0.2 μM streptavidin-XL665 [Cisbio Bioassays, Codolet, France] and 1 nM anti-phosho-Serine antibody [Merck Millipore, cat. #35-001] and 0.4 nM LANCE EU-W1024 labeled anti-mouse IgG antibody [Perkin-Elmer, product no. AD0077, alternatively a Terbium-cryptate-labeled anti-mouse IgG antibody from Cisbio Bioassays can be used]). The stopped reaction mixture was further incubated 1 h at 22° C. in order to allow the formation of complexes between peptides and detection reagents. Subsequently, the amount of product was evaluated by measurement of the resonance energy transfer from the Eu-chelate-antibody complex recognizing the Phosphoserine residue to the streptavidin-XL665 bound to the biotin moiety of the peptide. […] IC50 values were calculated by fitting the normalized inhibition data to a 4-parameter logistic equation (Minimum, Maximum, IC50, Hill; Y=Max+(Min−Max)/(1+(X/IC50)Hill)).
(In TR-FRET formats the signal depends on donor and acceptor labels being close together.)

The subject of a further experiment is HeLa cell line. Description: Proliferation assay (HeLa cell line), crystal violet staining. The experiment is classed as cell-based. The following applies: Homo sapiens, 96 h, read-out: Biological Assay 2: Proliferation assay (HeLa cell line) median IC50. Here is the method:
Cultivated tumor cells (cells were ordered from ATCC, except HeLa-MaTu and HeLa-MaTu-ADR, which were ordered from EPO-GmbH, Berlin) were plated at a density of 1000 to 5000 cells/well, depending on the growth rate of the respective cell line, in a 96-well multititer plate in 200 μL of their respective growth medium supplemented 10% fetal calf serum. After 24 hours, the cells of one plate (zero-point plate) were stained with crystal violet (see below), while the medium of the other plates was replaced by fresh culture medium (200 μL), to which the test substances were added in various concentrations (0 μM, as well as in the range of 0.001-10 μM; the final concentration of the solvent dimethyl sulfoxide was 0.5%). The cells were incubated for 4 days in the presence of test substances. Cell proliferation was determined by staining the cells with crystal violet: the cells were fixed by adding 20 μl/measuring point of an 11% glutaric aldehyde solution for 15 minutes at room temperature. After three washing cycles of the fixed cells with water, the plates were dried at room temperature. The cells were stained by adding 100 μl/measuring point of a 0.1% crystal violet solution (pH 3.0). After three washing cycles of the stained cells with water, the plates were dried at room temperature. The dye was dissolved by adding 100 μl/measuring point of a 10% acetic acid solution. Absorption was determined by photometry at a wavelength of 595 nm. The change of cell number, in percent, was calculated by normalization of the measured values to the absorption values of the zero-point plate (=0%) and the absorption of the untreated (0 μm) cells (=100%). The IC50 values were determined by means of a 4 parameter fit using the company's own software.

Setting [2] is: TR-FRET, recombinant catalytic domain of human Bub1, ATP 10 μM, peptide substrate 1 μM, median value, read-out: Biological Assay 1: Bub1 kinase assay median IC50.
Where [3] appears, read: HeLa cells, incubated for 4 days with test substance, crystal violet staining, median value.

As to `CCOc1cc(F)c(Cn2nc(-c3ncc(OC)c(Nc4ccccc4)n3)c3ccccc32)c(F)c1` [Example 2-1-1, 2-[1-(4-ethoxy-2,6-difluorobenzyl)-1H-indazol-3-yl]-5-methoxy-N-phenylpyrimidin-4-amine], the IC50 in experiment [1] (setting [2]) is 1500 nM; in the experiment on HeLa cell line (HeLa), greater than 10000 nM. In the same order, the values of `COc1ccc(Cn2nc(-c3ncc(OC)c(Nc4cccnc4)n3)c3ccccc32)cc1` [Example 2-1-3, 5-methoxy-2-[1-(4-methoxybenzyl)-1H-indazol-3-yl]-N-(pyridin-3-yl)pyrimidin-4-amine] are 2600 nM and 3600 nM.

`COc1ccc(Cn2nc(-c3ncc(OC)c(Nc4ccnn4C)n3)c3ccccc32)cc1` [Example 2-1-4, 5-methoxy-2-[1-(4-methoxybenzyl)-1H-indazol-3-yl]-N-(1-methyl-1H-pyrazol-5-yl)pyrimidin-4-amine]: the IC50 in experiment [1] (setting [2]) was found to be 3300 nM.

Take `COc1ccc(Cn2nc(-c3ncc(OC)c(Nc4ccccc4)n3)c3ccccc32)cc1` [Example 2-1-5, 5-methoxy-2-[1-(4-methoxybenzyl)-1H-indazol-3-yl]-N-phenylpyrimidin-4-amine]: the IC50 in experiment [1] (setting [2]) came out at 3700 nM. As for `COc1ccc(Cn2nc(-c3ncc(OC)c(Nc4ccc(F)cc4)n3)c3ccccc32)cc1` [Example 2-1-6, N-(4-fluorophenyl)-5-methoxy-2-[1-(4-methoxybenzyl)-1H-indazol-3-yl]pyrimidin-4-amine], the IC50 in experiment [1] (setting [2]) came to 8800 nM.

In the case of `CCOc1cc(F)c(Cn2nc(-c3ncc(OC)c(Nc4ccnnc4)n3)c3ccccc32)c(F)c1` [Example 2-2-1, N-{2-[1-(4-ethoxy-2,6-difluorobenzyl)-1H-indazol-3-yl]-5-methoxypyrimidin-4-yl}pyridazin-4-amine], the IC50 in experiment [1] (setting [2]) is 11 nM; in the experiment on HeLa cell line (HeLa) it was greater than 10000 nM. Consider `CCOc1cc(F)c(Cn2nc(-c3ncc(OC)c(Nc4ccncn4)n3)c3ccccc32)c(F)c1` [Example 2-2-2, 2-[1-(4-ethoxy-2,6-difluorobenzyl)-1H-indazol-3-yl]-5-methoxy-N-(pyrimidin-4-yl)pyrimidin-4-amine], for which the IC50 is 22 nM in experiment [1] (setting [2]) and greater than 10000 nM in the experiment on HeLa cell line (HeLa).

For the molecule `CCOc1cc(F)c(Cn2nc(-c3cc(Nc4ccncn4)ncn3)c3ccccc32)c(F)c1` [Example 2-2-3, 6-[1-(4-ethoxy-2,6-difluorobenzyl)-1H-indazol-3-yl]-N-(pyrimidin-4-yl)pyrimidin-4-amine], the values for the IC50 (in experiment [1] (setting [2]); in the experiment with HeLa cell line (HeLa)) were 25 nM and 5000 nM, respectively. With `CCOc1cc(F)c(Cn2nc(-c3ncc(OC)c(Nc4ccccc4C(=O)O)n3)c3ccccc32)c(F)c1` [Example 2-2-4, 2-({2-[1-(4-ethoxy-2,6-difluorobenzyl)-1H-indazol-3-yl]-5-methoxypyrimidin-4-yl}amino)benzoic acid], the IC50 in experiment [1] turned out to be 290 nM. On to `CCOc1cc(F)c(Cn2nc(-c3ncc(OC)c(Nc4ccc(F)cc4C(=O)O)n3)c3ccccc32)c(F)c1` [Example 2-2-5, 2-({2-[1-(4-ethoxy-2,6-difluorobenzyl)-1H-indazol-3-yl]-5-methoxypyrimidin-4-yl}amino)-5-fluorobenzoic acid], for which, in experiment [1], the IC50 was 180 nM. As for `CCOc1cc(F)c(Cn2nc(-c3ncc(OC)c(Nc4cncc(C(=O)NC)n4)n3)c3ccccc32)c(F)c1` [Example 2-2-6, 6-({2-[1-(4-ethoxy-2,6-difluorobenzyl)-1H-indazol-3-yl]-5-methoxypyrimidin-4-yl}amino)-N-methylpyrazine-2-carboxamide], the IC50 in experiment [1] (setting [2]) was 660 nM; with HeLa cell line (HeLa), greater than 10000 nM.

Consider `CCCc1ccc(Cn2nc(-c3ncc(OC)c(Nc4ccncn4)n3)c3ccccc32)cc1` [Example 2-3-1, 5-methoxy-2-[1-(4-propylbenzyl)-1H-indazol-3-yl]-N-(pyrimidin-4-yl)pyrimidin-4-amine], for which the IC50 in experiment [1] (setting [2]) is 44 nM; with HeLa cell line (HeLa), greater than 10000 nM. In the same order, the values of `CCOc1cc(F)c(Cn2nc(-c3ncc(OC)c(Nc4ccc(O)cc4)n3)c3ccccc32)c(F)c1` [Example 2-4-1, 4-({2-[1-(4-ethoxy-2,6-difluorobenzyl)-1H-indazol-3-yl]-5-methoxypyrimidin-4-yl}amino)phenol] are 240 nM and 6900 nM. Take `CCOc1cc(F)c(Cn2nc(-c3cc(Nc4ccncn4)ccn3)c3ccccc32)c(F)c1` [Example 2-5-1, N-{2-[1-(4-ethoxy-2,6-difluorobenzyl)-1H-indazol-3-yl]pyridin-4-yl}pyrimidin-4-amine]: the figures for the IC50 (in experiment [1] (setting [2]); in the experiment with HeLa cell line (HeLa)) were 14 nM and greater than 10000 nM, respectively. Regarding `CCOc1cc(F)c(Cn2nc(-c3cc(Nc4ncncn4)ccn3)c3ccccc32)c(F)c1` [Example 2-5-2, N-{2-[1-(4-ethoxy-2,6-difluorobenzyl)-1H-indazol-3-yl]pyridin-4-yl}-1,3,5-triazin-2-amine], the IC50 turned out to be 21 nM in experiment [1] (setting [2]) and 2900 nM with HeLa cell line (HeLa). Taken in the same sequence, the figures for `CCOc1cc(F)c(Cn2nc(-c3cc(Nc4cnsc4)ccn3)c3ccccc32)c(F)c1` [Example 2-5-3, 2-[1-(4-ethoxy-2,6-difluorobenzyl)-1H-indazol-3-yl]-N-(1,2-thiazol-4-yl)pyridin-4-amine] were 720 nM and greater than 10000 nM.

In experiment [1], `CCOc1cc(F)c(Cn2nc(-c3cc(Nc4ccncn4)ccn3)c3cnccc32)c(F)c1` [Example 2-5-4, N-{2-[1-(4-ethoxy-2,6-difluorobenzyl)-1H-pyrazolo[4,3-c]pyridin-3-yl]pyridin-4-yl}pyrimidin-4-amine] displayed an IC50 of 220 nM. In the case of `COc1ccc(Cn2nc(-c3nccc(Nc4nnc(N)[nH]4)n3)c3ccccc32)cc1` [Example 2-5-5, N-{2-[1-(4-methoxybenzyl)-1H-indazol-3-yl]pyrimidin-4-yl}-4H-1,2,4-triazole-3,5-diamine], the IC50 in experiment [1] (setting [2]) was determined as 2800 nM. Turning to `Fc1cccc(F)c1Cn1nc(-c2cc(Nc3ccncn3)ccn2)c2ccccc21` [Example 2-6-2, N-{2-[1-(2,6-difluorobenzyl)-1H-indazol-3-yl]pyridin-4-yl}pyrimidin-4-amine], the results for the IC50 (in experiment [1]; with HeLa cell line (setting [3])) were 13 nM and greater than 10000 nM, respectively. On to `CCCc1ccc(Cn2nc(-c3cc(Nc4ccncn4)ccn3)c3ccccc32)cc1` [Example 2-6-3, N-{2-[1-(4-propylbenzyl)-1H-indazol-3-yl]pyridin-4-yl}pyrimidin-4-amine], for which the IC50 in experiment [1] is 28 nM; with HeLa cell line (setting [3]) it was 6900 nM. In turn, `Cn1cc(Nc2ccnc(-c3nn(Cc4ccccc4F)c4ccccc34)c2)cn1` [Example 2-6-4, 2-[1-(2-fluorobenzyl)-1H-indazol-3-yl]-N-(1-methyl-1H-pyrazol-4-yl)pyridin-4-amine] had an IC50 in experiment [1] of 17000 nM. In the case of `CCOc1cc(F)c(Cn2nc(-c3cc(Nc4cn[nH]c4)ccn3)c3ccccc32)c(F)c1` [Example 2-7-1, 2-[1-(4-ethoxy-2,6-difluorobenzyl)-1H-indazol-3-yl]-N-(1H-pyrazol-4-yl)pyridin-4-amine], the IC50 in experiment [1] (setting [2]) was 17 nM; in the experiment with HeLa cell line (HeLa) it was 2400 nM.

For the molecule `CCOc1cc(F)c(Cn2nc(-c3cc(Nc4ncnn4CC)ccn3)c3ccccc32)c(F)c1` [Example 2-8-1, 2-[1-(4-ethoxy-2,6-difluorobenzyl)-1H-indazol-3-yl]-N-(1-ethyl-1H-1,2,4-triazol-5-yl)pyridin-4-amine], the IC50 in experiment [1] (setting [2]) stood at 120 nM. `CCOc1cc(F)c(Cn2nc(-c3cc(Nc4nnc[nH]4)ccn3)c3ccccc32)c(F)c1` [Example 2-8-2, 2-[1-(4-ethoxy-2,6-difluorobenzyl)-1H-indazol-3-yl]-N-(4H-1,2,4-triazol-3-yl)pyridin-4-amine]: the IC50 in experiment [1] (setting [2]) was 800 nM. As for `Oc1cnc(-c2nn(Cc3ccccc3F)c3ccccc23)nc1Nc1ccncn1` [Example 2-9-1, 2-[1-(2-fluorobenzyl)-1H-indazol-3-yl]-4-(pyrimidin-4-ylamino)pyrimidin-5-ol], the IC50 in experiment [1] (setting [2]) was 13 nM; in the experiment with HeLa cell line (HeLa), greater than 10000 nM.
